# Test results taken from ChEMBL document CHEMBL5653631, “A Potent and Selective ULK1 Inhibitor Suppresses Autophagy and Sensitizes Cancer Cells to Nutrient Stress” (iScience, 2018).
# Experiments:
# [1] = target: T1, Rhodopsin kinase GRK1 (Homo sapiens) (UniProt Q15835); test: Inhibition of human recombinant RHOK at 500 nM related to control ULK1
# T1 sequence (whole entry): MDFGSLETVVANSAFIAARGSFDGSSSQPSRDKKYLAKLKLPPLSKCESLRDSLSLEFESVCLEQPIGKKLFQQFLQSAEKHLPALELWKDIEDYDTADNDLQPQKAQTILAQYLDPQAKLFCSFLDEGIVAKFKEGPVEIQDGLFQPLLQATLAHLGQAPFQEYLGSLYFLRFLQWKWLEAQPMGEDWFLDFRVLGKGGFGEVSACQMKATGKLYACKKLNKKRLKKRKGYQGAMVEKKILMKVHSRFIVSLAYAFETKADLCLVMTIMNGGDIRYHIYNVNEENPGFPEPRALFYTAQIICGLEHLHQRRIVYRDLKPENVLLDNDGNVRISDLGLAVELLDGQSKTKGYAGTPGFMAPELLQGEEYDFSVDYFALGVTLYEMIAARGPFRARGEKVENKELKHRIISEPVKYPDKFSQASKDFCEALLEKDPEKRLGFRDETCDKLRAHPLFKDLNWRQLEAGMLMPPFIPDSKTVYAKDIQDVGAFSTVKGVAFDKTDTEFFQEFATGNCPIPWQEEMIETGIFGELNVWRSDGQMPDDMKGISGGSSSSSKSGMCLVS
# [2] = target: T2, cGMP-dependent protein kinase 2 (Homo sapiens) (UniProt Q13237); test: Inhibition of human recombinant PKG2 at 500 nM in presence of ATP by radiometric assay relative to control
# T2 sequence (whole entry): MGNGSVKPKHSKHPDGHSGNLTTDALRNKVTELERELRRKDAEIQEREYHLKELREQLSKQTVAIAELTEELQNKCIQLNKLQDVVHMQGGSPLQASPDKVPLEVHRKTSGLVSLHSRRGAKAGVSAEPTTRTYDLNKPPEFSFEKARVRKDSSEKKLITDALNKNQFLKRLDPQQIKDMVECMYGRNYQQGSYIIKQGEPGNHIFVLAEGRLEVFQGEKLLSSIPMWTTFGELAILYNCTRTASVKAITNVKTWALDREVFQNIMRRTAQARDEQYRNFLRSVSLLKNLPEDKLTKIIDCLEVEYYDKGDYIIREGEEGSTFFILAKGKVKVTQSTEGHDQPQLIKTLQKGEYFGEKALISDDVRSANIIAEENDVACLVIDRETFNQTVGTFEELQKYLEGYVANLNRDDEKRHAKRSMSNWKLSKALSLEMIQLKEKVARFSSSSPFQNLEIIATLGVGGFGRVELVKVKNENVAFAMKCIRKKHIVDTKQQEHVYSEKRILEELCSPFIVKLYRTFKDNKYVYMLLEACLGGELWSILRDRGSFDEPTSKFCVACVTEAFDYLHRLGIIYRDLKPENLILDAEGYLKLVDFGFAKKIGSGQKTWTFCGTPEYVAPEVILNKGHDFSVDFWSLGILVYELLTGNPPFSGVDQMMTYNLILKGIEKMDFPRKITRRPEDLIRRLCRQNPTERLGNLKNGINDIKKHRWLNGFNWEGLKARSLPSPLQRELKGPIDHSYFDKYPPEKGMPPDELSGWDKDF
# [3] = target: Serine/threonine-protein kinase 32C (Homo sapiens) (UniProt Q86UX6); test: Inhibition of human recombinant YANK3 at 15 nM in presence of ATP by radiometric assay relative to control
# Chain of Serine/threonine-protein kinase 32C (Homo sapiens) (Q86UX6 whole entry): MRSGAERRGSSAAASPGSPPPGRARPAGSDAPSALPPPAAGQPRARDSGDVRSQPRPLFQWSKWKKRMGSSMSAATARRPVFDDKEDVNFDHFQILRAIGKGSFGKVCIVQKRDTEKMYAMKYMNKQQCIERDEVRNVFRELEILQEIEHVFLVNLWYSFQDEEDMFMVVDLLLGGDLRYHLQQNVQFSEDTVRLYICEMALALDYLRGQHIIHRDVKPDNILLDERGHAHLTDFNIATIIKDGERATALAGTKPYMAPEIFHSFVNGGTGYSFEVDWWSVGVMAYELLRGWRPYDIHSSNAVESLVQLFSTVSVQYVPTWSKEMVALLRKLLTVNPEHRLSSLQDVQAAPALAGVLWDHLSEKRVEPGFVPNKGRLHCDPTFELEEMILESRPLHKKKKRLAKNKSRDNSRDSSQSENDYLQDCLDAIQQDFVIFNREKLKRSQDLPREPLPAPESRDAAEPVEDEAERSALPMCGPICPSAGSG
# [4] = target: Macrophage-stimulating protein receptor (Homo sapiens) (UniProt Q04912); test: Inhibition of human recombinant RON at 15 nM in presence of ATP by radiometric assay relative to control
# Chain of Macrophage-stimulating protein receptor (Homo sapiens) (Q04912 25-304 limits assumed): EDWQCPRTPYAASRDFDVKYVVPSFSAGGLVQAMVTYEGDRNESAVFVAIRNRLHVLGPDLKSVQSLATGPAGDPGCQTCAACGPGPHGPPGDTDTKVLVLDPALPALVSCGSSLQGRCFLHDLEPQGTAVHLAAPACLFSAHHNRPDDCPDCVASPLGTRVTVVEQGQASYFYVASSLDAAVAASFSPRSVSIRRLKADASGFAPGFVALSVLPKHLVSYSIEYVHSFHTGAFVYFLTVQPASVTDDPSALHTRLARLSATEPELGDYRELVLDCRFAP
# Chain of Macrophage-stimulating protein receptor (Homo sapiens) (Q04912 310-1400 limits assumed): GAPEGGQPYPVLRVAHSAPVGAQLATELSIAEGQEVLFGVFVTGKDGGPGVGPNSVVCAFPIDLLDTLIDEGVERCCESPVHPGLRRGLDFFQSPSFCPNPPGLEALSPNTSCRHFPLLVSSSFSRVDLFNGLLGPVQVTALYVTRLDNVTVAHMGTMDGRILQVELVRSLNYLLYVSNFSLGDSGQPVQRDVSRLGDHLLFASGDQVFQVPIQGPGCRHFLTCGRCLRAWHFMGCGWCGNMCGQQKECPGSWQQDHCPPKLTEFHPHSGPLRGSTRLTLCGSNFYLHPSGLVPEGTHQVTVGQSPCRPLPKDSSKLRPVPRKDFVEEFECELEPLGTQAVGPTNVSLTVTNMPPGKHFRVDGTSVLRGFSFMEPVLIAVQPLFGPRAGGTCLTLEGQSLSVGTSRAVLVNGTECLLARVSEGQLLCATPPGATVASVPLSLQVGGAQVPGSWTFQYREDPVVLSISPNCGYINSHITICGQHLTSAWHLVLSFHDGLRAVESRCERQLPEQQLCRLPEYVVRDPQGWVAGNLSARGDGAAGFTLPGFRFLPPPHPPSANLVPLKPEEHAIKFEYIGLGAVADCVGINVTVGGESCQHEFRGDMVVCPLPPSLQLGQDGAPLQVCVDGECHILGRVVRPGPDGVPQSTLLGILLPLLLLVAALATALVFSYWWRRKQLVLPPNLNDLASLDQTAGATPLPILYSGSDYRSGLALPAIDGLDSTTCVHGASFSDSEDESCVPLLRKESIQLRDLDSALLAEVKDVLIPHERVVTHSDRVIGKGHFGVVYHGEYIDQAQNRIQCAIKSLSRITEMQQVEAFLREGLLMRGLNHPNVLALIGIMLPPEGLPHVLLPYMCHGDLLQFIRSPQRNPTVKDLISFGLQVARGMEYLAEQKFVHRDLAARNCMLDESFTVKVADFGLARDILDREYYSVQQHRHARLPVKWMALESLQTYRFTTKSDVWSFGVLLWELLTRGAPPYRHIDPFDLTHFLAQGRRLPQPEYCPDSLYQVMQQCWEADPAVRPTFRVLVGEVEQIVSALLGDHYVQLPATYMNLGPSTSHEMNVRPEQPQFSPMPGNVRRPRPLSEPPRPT
# [5] = target: Mitogen-activated protein kinase 9 (Homo sapiens) (UniProt P45984); test: Inhibition of human recombinant JNK2 at 15 nM related to control ULK1
# Chain of Mitogen-activated protein kinase 9 (Homo sapiens) (P45984 whole entry, looked up): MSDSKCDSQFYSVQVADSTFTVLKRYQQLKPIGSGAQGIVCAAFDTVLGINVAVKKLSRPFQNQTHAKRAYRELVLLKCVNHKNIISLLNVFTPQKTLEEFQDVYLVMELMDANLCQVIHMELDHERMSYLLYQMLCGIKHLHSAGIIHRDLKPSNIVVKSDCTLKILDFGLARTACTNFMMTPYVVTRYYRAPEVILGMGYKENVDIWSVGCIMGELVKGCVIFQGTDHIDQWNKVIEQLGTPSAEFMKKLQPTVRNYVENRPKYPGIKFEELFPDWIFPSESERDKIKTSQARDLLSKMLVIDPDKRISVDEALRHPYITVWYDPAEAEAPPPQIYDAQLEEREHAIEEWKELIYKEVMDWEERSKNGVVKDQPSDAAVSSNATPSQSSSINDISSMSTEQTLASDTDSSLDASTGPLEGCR
# [6] = target: cAMP-dependent protein kinase catalytic subunit beta (Homo sapiens) (UniProt P22694); test: Inhibition of human recombinant PKACbeta at 15 nM related to control ULK1
# [7] = target: T3, Serine/threonine-protein kinase Nek9 (Homo sapiens) (UniProt Q8TD19); test: Inhibition of human recombinant NEK9 at 15 nM in presence of ATP by radiometric assay relative to control
# T3 sequence (whole entry): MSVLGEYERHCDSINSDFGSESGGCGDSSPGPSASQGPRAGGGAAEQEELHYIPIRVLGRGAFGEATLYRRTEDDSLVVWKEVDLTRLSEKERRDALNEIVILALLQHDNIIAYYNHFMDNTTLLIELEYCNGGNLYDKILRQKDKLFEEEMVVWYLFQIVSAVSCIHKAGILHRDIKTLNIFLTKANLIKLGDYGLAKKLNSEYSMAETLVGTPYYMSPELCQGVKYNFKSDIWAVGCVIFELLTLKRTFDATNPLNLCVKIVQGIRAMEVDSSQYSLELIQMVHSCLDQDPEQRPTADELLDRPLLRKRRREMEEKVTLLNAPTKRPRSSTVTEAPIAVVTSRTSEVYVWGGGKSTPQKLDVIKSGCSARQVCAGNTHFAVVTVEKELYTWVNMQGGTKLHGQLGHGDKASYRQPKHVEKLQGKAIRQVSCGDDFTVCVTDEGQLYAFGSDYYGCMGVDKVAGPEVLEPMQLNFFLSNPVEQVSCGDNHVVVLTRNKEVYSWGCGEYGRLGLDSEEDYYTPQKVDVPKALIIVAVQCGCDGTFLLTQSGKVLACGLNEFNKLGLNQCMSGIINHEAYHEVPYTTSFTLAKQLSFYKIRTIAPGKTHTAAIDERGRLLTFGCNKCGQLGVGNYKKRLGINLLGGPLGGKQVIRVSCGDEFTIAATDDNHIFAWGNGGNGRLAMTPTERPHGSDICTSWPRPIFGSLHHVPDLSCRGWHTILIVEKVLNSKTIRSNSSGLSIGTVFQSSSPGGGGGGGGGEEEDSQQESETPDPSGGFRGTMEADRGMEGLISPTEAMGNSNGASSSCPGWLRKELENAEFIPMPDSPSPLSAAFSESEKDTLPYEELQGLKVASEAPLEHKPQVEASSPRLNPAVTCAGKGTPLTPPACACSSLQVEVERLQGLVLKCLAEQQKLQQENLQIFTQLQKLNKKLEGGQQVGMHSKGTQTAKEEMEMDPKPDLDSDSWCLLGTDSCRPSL
# [8] = target: Mitogen-activated protein kinase kinase kinase kinase 4 (Homo sapiens) (UniProt O95819); test: Inhibition of human recombinant HGK at 15 nM related to control ULK1
# Chain of Mitogen-activated protein kinase kinase kinase kinase 4 (Homo sapiens) (O95819 2-1239 limits assumed): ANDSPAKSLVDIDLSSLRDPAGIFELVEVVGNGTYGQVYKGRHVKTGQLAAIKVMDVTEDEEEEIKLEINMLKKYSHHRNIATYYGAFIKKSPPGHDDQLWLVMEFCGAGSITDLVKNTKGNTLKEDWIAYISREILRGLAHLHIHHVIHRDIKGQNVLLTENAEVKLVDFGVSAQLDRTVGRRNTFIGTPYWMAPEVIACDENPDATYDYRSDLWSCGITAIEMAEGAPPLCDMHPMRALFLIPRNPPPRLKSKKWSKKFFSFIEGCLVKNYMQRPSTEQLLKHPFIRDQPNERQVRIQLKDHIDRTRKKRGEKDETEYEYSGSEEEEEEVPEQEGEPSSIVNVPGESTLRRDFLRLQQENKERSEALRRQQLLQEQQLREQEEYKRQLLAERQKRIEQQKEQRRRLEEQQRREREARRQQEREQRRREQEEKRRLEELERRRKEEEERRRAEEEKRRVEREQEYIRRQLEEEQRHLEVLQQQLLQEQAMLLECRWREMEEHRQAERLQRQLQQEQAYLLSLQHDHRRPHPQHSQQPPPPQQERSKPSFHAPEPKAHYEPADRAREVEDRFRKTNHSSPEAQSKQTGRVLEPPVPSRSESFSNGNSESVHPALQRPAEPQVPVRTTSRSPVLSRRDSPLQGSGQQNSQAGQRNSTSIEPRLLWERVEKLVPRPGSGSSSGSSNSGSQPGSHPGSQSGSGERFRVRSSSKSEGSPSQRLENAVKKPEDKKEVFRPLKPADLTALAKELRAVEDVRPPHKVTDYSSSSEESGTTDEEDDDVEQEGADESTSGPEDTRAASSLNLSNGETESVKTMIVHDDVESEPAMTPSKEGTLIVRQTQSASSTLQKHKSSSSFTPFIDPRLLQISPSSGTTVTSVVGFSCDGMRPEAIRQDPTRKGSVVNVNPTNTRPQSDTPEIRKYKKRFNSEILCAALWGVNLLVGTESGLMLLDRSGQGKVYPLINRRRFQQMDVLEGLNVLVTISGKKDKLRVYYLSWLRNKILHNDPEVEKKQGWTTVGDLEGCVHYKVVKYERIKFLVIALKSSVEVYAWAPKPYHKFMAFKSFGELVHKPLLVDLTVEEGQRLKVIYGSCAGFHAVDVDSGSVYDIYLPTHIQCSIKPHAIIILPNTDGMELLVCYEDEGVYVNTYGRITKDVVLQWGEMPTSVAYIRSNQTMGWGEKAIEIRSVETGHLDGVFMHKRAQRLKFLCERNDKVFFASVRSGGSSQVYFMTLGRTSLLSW
# [9] = target: Ribosomal protein S6 kinase alpha-4 (Homo sapiens) (UniProt O75676); test: Inhibition of human recombinant MSK2 at 40 nM related to control ULK1
# [10] = target: Serine/threonine-protein kinase PRP4 homolog (Homo sapiens) (UniProt Q13523); test: Inhibition of human recombinant PRP4 at 40 nM in presence of ATP by radiometric assay relative to control
# Chain of Serine/threonine-protein kinase PRP4 homolog (Homo sapiens) (Q13523 whole entry): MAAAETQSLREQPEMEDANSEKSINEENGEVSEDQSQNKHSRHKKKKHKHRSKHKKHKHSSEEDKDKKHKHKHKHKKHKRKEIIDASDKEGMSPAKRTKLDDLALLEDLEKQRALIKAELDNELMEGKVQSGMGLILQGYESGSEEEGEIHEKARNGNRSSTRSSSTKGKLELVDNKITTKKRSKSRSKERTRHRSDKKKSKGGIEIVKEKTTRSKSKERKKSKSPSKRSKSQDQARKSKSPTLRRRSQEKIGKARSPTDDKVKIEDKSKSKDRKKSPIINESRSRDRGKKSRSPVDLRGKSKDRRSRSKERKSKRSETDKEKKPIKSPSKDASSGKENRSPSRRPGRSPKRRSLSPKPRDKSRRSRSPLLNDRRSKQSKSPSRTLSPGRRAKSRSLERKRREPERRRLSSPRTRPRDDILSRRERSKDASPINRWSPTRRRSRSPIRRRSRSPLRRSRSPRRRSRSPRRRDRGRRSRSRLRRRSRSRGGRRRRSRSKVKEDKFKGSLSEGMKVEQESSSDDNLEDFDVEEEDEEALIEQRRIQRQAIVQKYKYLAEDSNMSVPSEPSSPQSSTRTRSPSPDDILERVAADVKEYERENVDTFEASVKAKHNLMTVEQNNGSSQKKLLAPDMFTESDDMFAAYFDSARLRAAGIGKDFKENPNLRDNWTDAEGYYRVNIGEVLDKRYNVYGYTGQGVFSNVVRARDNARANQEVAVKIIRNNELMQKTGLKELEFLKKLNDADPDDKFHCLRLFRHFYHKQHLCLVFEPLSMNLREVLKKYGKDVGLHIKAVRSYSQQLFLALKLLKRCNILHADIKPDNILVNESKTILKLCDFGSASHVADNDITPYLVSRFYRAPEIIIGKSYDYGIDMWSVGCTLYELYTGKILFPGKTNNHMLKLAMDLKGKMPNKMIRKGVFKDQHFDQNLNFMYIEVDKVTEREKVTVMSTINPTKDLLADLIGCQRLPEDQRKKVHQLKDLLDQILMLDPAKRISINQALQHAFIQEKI
compound,measurement,setting,value
CNC(=O)c1ccccc1Oc1nc(Nc2cc(OC)c(OC)c(OC)c2)ncc1Br,fold change (FC),[1],0
same,inhibition,[2],2%
CC(C)[C@H](NC(=O)c1cc(-c2cnn3cc(-c4ccc(OCCN5CCCCC5)cc4)cnc23)cs1)C(F)(F)F,inhibition,[3],3%
same,inhibition,[4],2%
same,fold change (FC),[5],0
same,fold change (FC),[6],0
same,inhibition,[7],22%
same,fold change (FC),[8],0
O=C(N[C@@H](C1CC1)C(F)(F)F)c1cc(-c2cnn3cc(-c4ccc(F)cc4)cnc23)cs1,fold change (FC),[9],0
same,inhibition,[10],6%
